Assay results reported in patent publication US20250319063A1, “METHODS AND COMPOUNDS FOR RESTORING MUTANT P53 FUNCTION” (PMV PHARMACEUTICALS, INC., priority 2022, published 2025).
“Also recorded” adds a separate entry of the source. Where two headings read alike, the source gives them in different places.

Assay: Single oral dose plasma pharmacokinetics in fasted and fed healthy subjects (food effect, ethnicity)
Format: in vivo, human
Settings: for AUC % extrap: both fed and fasted conditions; for AUC(0-t) / AUC(0-inf) / Cmax / Tmax / Vd/F / half-life: both sexes, human, plasma, po; for Vd/F: read-out: Vz/F, GeoMean; for half-life: read-out: t½, GeoMean (converted)
Procedure: Compound 1 pharmacokinetics were analyzed in healthy subjects administered Compound 1 in a fasted state. A subject was considered fasted if the subject fasted overnight for at least 10 hours and water was permitted ad libitum except for 1 hour before and after drug administration. For fasted subjects, Compound 1 was administered with at least 8 ounces (240 mL) of water. Compound 1 pharmacokinetics were also analyzed in healthy subjects administered Compound 1 in a fed state. A subject was considered fed after consuming a high-fat meal 30 minutes prior to drug administration, and the meal was finished at least 5 minutes prior to drug administration. For both fasted and fed subjects, no food was permitted for at least 4 hours post-dose and water was permitted starting at 1 hour post-dose.
Subjects were healthy, non-smoking male and female Caucasian/non-Asian or Japanese participants 18 to 55 years of age with a BMI between […].
In Part 1 of the study, analysis was performed to compare 1000 mg Compound 1 in fed and fasted states. A dose of 1000 mg of Compound 1 consisted of two 500 mg tablets administered as a single oral dose. The analysis of Part 1 was performed at two separate time points in two different schemes (1A and 1B).
In scheme 1A, at period 1, Compound 1 analyzed in healthy subjects administered 1000 mg Compound 1 (n=3) in a fed state. Following a washout period of 7-9 days, these subjects were then administered 1000 mg Compound 1 in a fasted state.
Separately, in scheme 1B, at period 1, Compound 1 was analyzed in healthy subjects administered 1000 mg Compound 1 (n=3) in a fasted state. Following a washout period of 7-9 days, these subjects were then administered 1000 mg Compound 1 in a fed state.
In Part 2 of the study, analysis was performed to compare 2000 mg Compound 1 in fed and fasted states and also to compared ethnicity of Caucasian/non-Asian subjects and Japanese subjects. A dose of 2000 mg of Compound 1 consisted of four 500 mg tablets administered as a single oral dose.
For Caucasian/non-Asian subjects (n=20) the analysis was performed at two separate time points in two different schemes (2A and 2B). During scheme 2A, at period 1, Compound 1 was analyzed in subjects administered 2000 mg Compound 1 (n=10) in a fed state. Following a washout period of 7-9 days, at period 2, these subjects were then administered 2000 mg Compound 1 in a fasted state. Separately in scheme 2B, at period 1, Compound 1 was analyzed in subjects administered 2000 mg Compound 1 (n=10) in a fasted state. Following a washout period of 7-9 days, at period 2, these subjects were then administered 2000 mg Compound 1 in a fed state.
For Japanese subjects (n=6), Compound 1 pharmacokinetics were analyzed in subjects administered 2000 mg Compound 1 in a fasted state.
Blood for the analysis of study drug (Compound 1) and metabolite (M1) were collected.
Various pharmacokinetic (PK) parameters were determined for each subject. (Tables 9-12 and FIGS. 23-28).
Statistical analysis of Compound 1 plasma PK parameters were evaluated for food effects for Part 1 (Table 11) and Part 2 (Table 12). The log-transformed PK parameters were analyzed using an analysis of variance model with treatment (fed/fasted condition) and period as fixed effects and participant as a random effect.

[1] = 2000 mg oral, Fasted, Caucasian/Non-Asian
[2] = 2000 mg oral, Fed, Caucasian/Non-Asian
[3] = 1000 mg, 1000 mg oral, Fasted (Part 1)
[4] = 1000 mg, 1000 mg oral, Fed (Part 1)
[5] = 2000 mg, 2000 mg oral, Fasted, Caucasian/Non-Asian
[6] = 2000 mg, 2000 mg oral, Fasted, Japanese
[7] = 2000 mg, 2000 mg oral, Fed, Caucasian/Non-Asian

CNC(=O)c1ccc(NCC#Cc2cc3c(N[C@@H]4CCN(C)C[C@@H]4F)cccc3n2CC(F)(F)F)c(OC)c1 [Compound 1, 4-((3-(4-(((3S,4R)-3-fluoro-1-methylpiperidin-4-yl)amino)-1-(2,2,2-trifluoroethyl)-1H-indol-2-yl)prop-2-yn-1-yl)amino)-3-methoxy-N-methylbenzamide]
Plasma CL/F and Vz/F, fasted vs fed (1000 mg (Part 1)): slightly higher in the fasted condition
Mean plasma concentrations, fed vs fasted (1000 mg and 2000 mg doses): higher for Caucasian/non-Asian participants under the fed condition compared to the fasted condition
AUC0-inf, % Ratio (Fed/Fasted) (1000 mg oral (Part 1)): 120.25%
AUC0-last, % Ratio (Fed/Fasted) (1000 mg oral (Part 1)): 120.21%
Cmax, % Ratio (Fed/Fasted) (1000 mg oral (Part 1)): 121.75%
AUC% extrap, GeoMean (1000 mg oral, Fasted (Part 1)): 1.61%
CL/F, GeoMean (1000 mg oral, Fasted (Part 1)): 6.67 L/h
λz, GeoMean (1000 mg oral, Fasted (Part 1)): 0.0450 h⁻¹
AUC0-last, GeoMean (1000 mg oral, Fed (Part 1)): 177 µg·h/mL
AUC% extrap, GeoMean (1000 mg oral, Fed (Part 1)): 1.61%
CL/F, GeoMean (1000 mg oral, Fed (Part 1)): 5.55 L/h
λz, GeoMean (1000 mg oral, Fed (Part 1)): 0.0438 h⁻¹
increase of peak exposure (Cmax) with food (high-fat meal) vs fasted (1000 mg single dose): approximately 22%
increase of systemic exposure (AUC0-inf and AUC0-last) with food (high-fat meal) vs fasted (1000 mg single dose): approximately 20%
AUC % extrap (1000 mg): less than 5%
AUC0-inf, % Ratio (Fed/Fasted) (2000 mg oral (Part 2)): 178.74%
AUC0-last, % Ratio (Fed/Fasted) (2000 mg oral (Part 2)): 172.94%
Cmax, % Ratio (Fed/Fasted) (2000 mg oral (Part 2)): 183.82%
AUC% extrap, GeoMean [1]: 3.42%
CL/F, GeoMean [1]: 7.71 L/h
λz, GeoMean [1]: 0.0348 h⁻¹
AUC0-last, GeoMean (2000 mg oral, Fasted, Japanese): 326 µg·h/mL
AUC% extrap, GeoMean (2000 mg oral, Fasted, Japanese): 2.13%
CL/F, GeoMean (2000 mg oral, Fasted, Japanese): 5.92 L/h
λz, GeoMean (2000 mg oral, Fasted, Japanese): 0.0398 h⁻¹
AUC0-last, GeoMean [2]: 448 µg·h/mL
AUC% extrap, GeoMean [2]: 4.74%
CL/F, GeoMean [2]: 4.18 L/h
λz, GeoMean [2]: 0.0306 h⁻¹
increase of AUC0-inf with food (high-fat meal) vs fasted (2000 mg single dose): 79%
increase of AUC0-last with food (high-fat meal) vs fasted (2000 mg single dose): 73%
increase of peak exposure (Cmax) with food (high-fat meal) vs fasted (2000 mg single dose): approximately 84%
Plasma CL/F and Vz/F, fasted vs fed (2000 mg, Caucasian/non-Asian (Part 2)): slightly higher in the fasted condition
AUC % extrap (2000 mg, Caucasian/non-Asian): less than 17%
Mean plasma concentrations, Japanese vs Caucasian/non-Asian (2000 mg, fasted): higher in Japanese participants compared to Caucasian/non-Asian participants
Plasma CL/F and Vz/F, Japanese vs Caucasian/non-Asian (2000 mg, fasted): numerically lower for Japanese participants
peak exposure (Cmax) and systemic exposure (AUC), Japanese vs Caucasian/non-Asian (2000 mg, fasted): numerically higher in Japanese participants
maximum exposure (Cmax) and systemic exposure (AUC), fed vs fasted (Caucasian/non-Asian participants): higher under fed conditions (high-fat meal) compared to fasted conditions
AUC(0-t) (1000 mg, 1000 mg oral, Fasted (Part 1), read-out: AUC0-24, GeoMean): 97.9 µg·h/mL
AUC(0-t) (1000 mg, 1000 mg oral, Fasted (Part 1), read-out: AUC0-96, GeoMean): 148 µg·h/mL
AUC(0-inf) (1000 mg, 1000 mg oral, Fasted (Part 1), read-out: AUC0-inf, GeoMean): 150 µg·h/mL
AUC(0-inf) (1000 mg, 1000 mg oral, Fasted (Part 1), read-out: AUC0-inf, Geometric Mean (analysis of variance model)): 150 µg·h/mL
AUC(0-t) (1000 mg, 1000 mg oral, Fasted (Part 1), read-out: AUC0-last, GeoMean): 147 µg·h/mL
AUC(0-t) (1000 mg, 1000 mg oral, Fasted (Part 1), read-out: AUC0-last, Geometric Mean (analysis of variance model)): 147 µg·h/mL
Cmax (1000 mg, 1000 mg oral, Fasted (Part 1), read-out: Cmax, GeoMean): 8690 ng/mL
Cmax (1000 mg, 1000 mg oral, Fasted (Part 1), read-out: Cmax, Geometric Mean (analysis of variance model)): 8690 ng/mL
Tmax (1000 mg, 1000 mg oral, Fasted (Part 1), read-out: Tmax, Median): 2.27 h
Tmax (1000 mg, 1000 mg oral, Fasted (Part 1), read-out: Tmax, Minimum, Maximum): 1.54 to 2.51 h
Vd/F [3]: 148 L
half-life [3]: 15.4 h
AUC(0-t) (1000 mg, 1000 mg oral, Fed (Part 1), read-out: AUC0-24, GeoMean): 119 µg·h/mL
AUC(0-t) (1000 mg, 1000 mg oral, Fed (Part 1), read-out: AUC0-96, GeoMean): 177 µg·h/mL
AUC(0-inf) (1000 mg, 1000 mg oral, Fed (Part 1), read-out: AUC0-inf, GeoMean): 180 µg·h/mL
AUC(0-inf) (1000 mg, 1000 mg oral, Fed (Part 1), read-out: AUC0-inf, Geometric Mean (analysis of variance model)): 180 µg·h/mL
AUC(0-t) (1000 mg, 1000 mg oral, Fed (Part 1), read-out: AUC0-last, GeoMean): 177 µg·h/mL
AUC(0-t) (1000 mg, 1000 mg oral, Fed (Part 1), read-out: AUC0-last, Geometric Mean (analysis of variance model)): 177 µg·h/mL
Cmax (1000 mg, 1000 mg oral, Fed (Part 1), read-out: Cmax, GeoMean): 10600 ng/mL
Cmax (1000 mg, 1000 mg oral, Fed (Part 1), read-out: Cmax, Geometric Mean (analysis of variance model)): 10600 ng/mL
Tmax (1000 mg, 1000 mg oral, Fed (Part 1), read-out: Tmax, Median): 3.25 h
Tmax (1000 mg, 1000 mg oral, Fed (Part 1), read-out: Tmax, Minimum, Maximum): 1.51 to 5.01 h
Vd/F [4]: 127 L
half-life [4]: 15.8 h
AUC(0-inf) (2000 mg, 2000 mg oral, Fasted (Part 2), read-out: AUC0-inf, Geometric Mean (analysis of variance model)): 260 µg·h/mL
AUC(0-t) (2000 mg, 2000 mg oral, Fasted (Part 2), read-out: AUC0-last, Geometric Mean (analysis of variance model)): 259 µg·h/mL
Cmax (2000 mg, 2000 mg oral, Fasted (Part 2), read-out: Cmax, Geometric Mean (analysis of variance model)): 10400 ng/mL
AUC(0-t) (2000 mg, 2000 mg oral, Fasted, Caucasian/Non-Asian, read-out: AUC0-24, GeoMean): 138 µg·h/mL
AUC(0-t) (2000 mg, 2000 mg oral, Fasted, Caucasian/Non-Asian, read-out: AUC0-96, GeoMean): 255 µg·h/mL
AUC(0-inf) (2000 mg, 2000 mg oral, Fasted, Caucasian/Non-Asian, read-out: AUC0-inf, GeoMean): 259 µg·h/mL
AUC(0-t) (2000 mg, 2000 mg oral, Fasted, Caucasian/Non-Asian, read-out: AUC0-last, GeoMean): 254 µg·h/mL
Cmax (2000 mg, 2000 mg oral, Fasted, Caucasian/Non-Asian, read-out: Cmax, GeoMean): 10300 ng/mL
Tmax (2000 mg, 2000 mg oral, Fasted, Caucasian/Non-Asian, read-out: Tmax, Median): 2.52 h
Tmax (2000 mg, 2000 mg oral, Fasted, Caucasian/Non-Asian, read-out: Tmax, Minimum, Maximum): 1.03 to 5.94 h
Vd/F [5]: 212 L
half-life [5]: 19.9 h
AUC(0-t) (2000 mg, 2000 mg oral, Fasted, Japanese, read-out: AUC0-24, GeoMean): 193 µg·h/mL
AUC(0-t) (2000 mg, 2000 mg oral, Fasted, Japanese, read-out: AUC0-96, GeoMean): 326 µg·h/mL
AUC(0-inf) (2000 mg, 2000 mg oral, Fasted, Japanese, read-out: AUC0-inf, GeoMean): 338 µg·h/mL
AUC(0-t) (2000 mg, 2000 mg oral, Fasted, Japanese, read-out: AUC0-last, GeoMean): 326 µg·h/mL
Cmax (2000 mg, 2000 mg oral, Fasted, Japanese, read-out: Cmax, GeoMean): 14700 ng/mL
Tmax (2000 mg, 2000 mg oral, Fasted, Japanese, read-out: Tmax, Median): 3.94 h
Vd/F [6]: 149 L
half-life [6]: 17.4 h
AUC(0-inf) (2000 mg, 2000 mg oral, Fed (Part 2), read-out: AUC0-inf, Geometric Mean (analysis of variance model)): 465 µg·h/mL
AUC(0-t) (2000 mg, 2000 mg oral, Fed (Part 2), read-out: AUC0-last, Geometric Mean (analysis of variance model)): 449 µg·h/mL
Cmax (2000 mg, 2000 mg oral, Fed (Part 2), read-out: Cmax, Geometric Mean (analysis of variance model)): 19100 ng/mL
AUC(0-t) (2000 mg, 2000 mg oral, Fed, Caucasian/Non-Asian, read-out: AUC0-24, GeoMean): 250 µg·h/mL
AUC(0-t) (2000 mg, 2000 mg oral, Fed, Caucasian/Non-Asian, read-out: AUC0-96, GeoMean): 448 µg·h/mL
AUC(0-inf) (2000 mg, 2000 mg oral, Fed, Caucasian/Non-Asian, read-out: AUC0-inf, GeoMean): 479 µg·h/mL
AUC(0-t) (2000 mg, 2000 mg oral, Fed, Caucasian/Non-Asian, read-out: AUC0-last, GeoMean): 448 µg·h/mL
Cmax (2000 mg, 2000 mg oral, Fed, Caucasian/Non-Asian, read-out: Cmax, GeoMean): 19000 ng/mL
Tmax (2000 mg, 2000 mg oral, Fed, Caucasian/Non-Asian, read-out: Tmax, Median): 4.03 h
Tmax (2000 mg, 2000 mg oral, Fed, Caucasian/Non-Asian, read-out: Tmax, Minimum, Maximum): 2.11 to 8.08 h
Vd/F [7]: 137 L
half-life [7]: 22.7 h
plasma concentration-time profile (single oral doses): reached the maximum peak rapidly and declined roughly in a bi-exponential manner; also recorded: rapidly absorbed
